Paper PMC12217109, “Development of novel benzamide class I selective lysine deacetylase inhibitors as potent anticancer agents” (Journal of Enzyme Inhibition and Medicinal Chemistry, 2025)

What was measured:
[1] = test system: HeLa nuclear KDACs; assay: Fluor-de-Lys HDAC fluorometric activity assay with HeLa nuclear extract; format: biochemical; details: for IC50: HeLa nuclear extract, up to 20 µM, read-out: HDAC Inhibition IC50; for IC20: concentration inhibiting HDAC activity by 20%, read-out: HDAC Inhibition IC20
Description: Total zinc-dependent KDAC (classes I, II and IV) activity was measured using the Fluor-de-Lys^TM HDAC fluorometric activity assay kit (BioMol, Exeter, UK), as per manufacturers protocol. Briefly, HeLa nuclear extract, potential inhibitor (5 nM–20 μM) and assay buffer were incubated in a 96-well fluorometric plate at 37 °C for 15 min. Acetylated substrate (100 μM) was added and the mixture incubated at 37 °C for a further 20 min. The developer was added and the mixture incubated at 37 °C for a further 15 min. Fluorescence was measured using a microplate reader (λex = 360 nm, λem = 460 nm). Percentage KDAC activity and thus KDAC inhibition was determined by quantification of fluorescence obtained in the presence versus absence of the respective inhibitor.

[2] = test system: A549; assay: NCI-60 cytotoxicity screen; format: cell-based; details: Homo sapiens, NCI-60, 48 h, NSCLC
Source text: (§1) Compounds 3–7 were submitted to the US National Cancer Institute (NIH, Bethesda, Maryland) for screening against the NCI-60 panel of human cancer cell lines, as per standard protocol.

[3] = test system: OVCAR-4; assay: NCI-60 cytotoxicity screen; format: cell-based; details: Homo sapiens, NCI-60, 48 h, ovarian
Source text: as §1

[4] = test system: SR; assay: NCI-60 cytotoxicity screen; format: cell-based; details: Homo sapiens, NCI-60, 48 h, leukaemia
Source text: as §1

[5] = test system: CAKI-1; assay: NCI-60 cytotoxicity screen; format: cell-based; details: Homo sapiens, NCI-60, 48 h, renal
Source text: as §1

[6] = test system: KM12; assay: NCI-60 cytotoxicity screen; format: cell-based; details: Homo sapiens, NCI-60, 48 h, colon
Source text: as §1

[7] = test system: DU-145; assay: NCI-60 cytotoxicity screen; format: cell-based; details: Homo sapiens, NCI-60, 48 h, prostate
Source text: as §1

[8] = test system: HL-60; assay: NCI-60 cytotoxicity screen; format: cell-based; details: Homo sapiens, NCI-60, 48 h, leukaemia
Source text: as §1

[9] = test system: NCI/ADR-RES; assay: NCI-60 cytotoxicity screen; format: cell-based; details: Homo sapiens, NCI-60, 48 h, ovarian
Source text: as §1

[10] = test system: HCT116; assay: NCI-60 cytotoxicity screen; format: cell-based; details: Homo sapiens, HCT-116; NCI-60, 48 h, colon
Source text: as §1

[11] = test system: BT 549; assay: NCI-60 cytotoxicity screen; format: cell-based; details: Homo sapiens, NCI-60, 48 h, breast
Source text: as §1

[12] = test system: EKVX; assay: NCI-60 cytotoxicity screen; format: cell-based; details: Homo sapiens, NCI-60, 48 h, NSCLC
Source text: as §1

[13] = test system: OVCAR-3; assay: NCI-60 cytotoxicity screen; format: cell-based; details: Homo sapiens, NCI-60, 48 h, ovarian
Source text: as §1

[14] = test system: 786-0; assay: NCI-60 cytotoxicity screen; format: cell-based; details: Homo sapiens, NCI-60, 48 h, renal
Source text: as §1

[15] = test system: SNB-75; assay: NCI-60 cytotoxicity screen; format: cell-based; details: Homo sapiens, NCI-60, 48 h, CNS
Source text: as §1

[16] = test system: SNB-19; assay: NCI-60 cytotoxicity screen; format: cell-based; details: Homo sapiens, NCI-60, 48 h, CNS
Source text: as §1

[17] = test system: IGROV-1; assay: NCI-60 cytotoxicity screen; format: cell-based; details: Homo sapiens, NCI-60, 48 h, ovarian
Source text: as §1

[18] = test system: HCT15; assay: NCI-60 cytotoxicity screen; format: cell-based; details: Homo sapiens, HCT-15; NCI-60, 48 h, colon
Source text: as §1

[19] = test system: H23; assay: NCI-60 cytotoxicity screen; format: cell-based; details: Homo sapiens, NCI-60, 48 h, NSCLC
Source text: as §1

[20] = test system: UACC-62; assay: NCI-60 cytotoxicity screen; format: cell-based; details: Homo sapiens, NCI-60, 48 h, melanoma
Source text: as §1

[21] = test system: SN12C; assay: NCI-60 cytotoxicity screen; format: cell-based; details: Homo sapiens, NCI-60, 48 h, renal
Source text: as §1

[22] = test system: MDA-MB-435; assay: NCI-60 cytotoxicity screen; format: cell-based; details: Homo sapiens, NCI-60, 48 h, melanoma
Source text: as §1

[23] = test system: H460; assay: NCI-60 cytotoxicity screen; format: cell-based; details: Homo sapiens, NCI-60, 48 h, NSCLC
Source text: as §1

[24] = test system: LOX IMVI; assay: NCI-60 cytotoxicity screen; format: cell-based; details: Homo sapiens, NCI-60, 48 h, melanoma
Source text: as §1

[25] = test system: U251; assay: NCI-60 cytotoxicity screen; format: cell-based; details: Homo sapiens, U-251; NCI-60, 48 h, CNS
Source text: as §1

[26] = test system: RXF 393; assay: NCI-60 cytotoxicity screen; format: cell-based; details: Homo sapiens, NCI-60, 48 h, renal
Source text: as §1

[27] = test system: OVCAR-8; assay: NCI-60 cytotoxicity screen; format: cell-based; details: Homo sapiens, NCI-60, 48 h, ovarian
Source text: as §1

[28] = test system: SF-295; assay: NCI-60 cytotoxicity screen; format: cell-based; details: Homo sapiens, NCI-60, 48 h, CNS
Source text: as §1

[29] = test system: PC-3; assay: NCI-60 cytotoxicity screen; format: cell-based; details: Homo sapiens, NCI-60, 48 h, prostate
Source text: as §1

[30] = test system: RPMI-8226; assay: NCI-60 cytotoxicity screen; format: cell-based; details: Homo sapiens, NCI-60, 48 h, leukaemia
Source text: as §1

[31] = test system: SK-MEL-28; assay: NCI-60 cytotoxicity screen; format: cell-based; details: Homo sapiens, NCI-60, 48 h, melanoma
Source text: as §1

[32] = test system: M14; assay: NCI-60 cytotoxicity screen; format: cell-based; details: Homo sapiens, NCI-60, 48 h, melanoma
Source text: as §1

[33] = test system: SF-268; assay: NCI-60 cytotoxicity screen; format: cell-based; details: Homo sapiens, NCI-60, 48 h, CNS
Source text: as §1

[34] = test system: ACHN; assay: NCI-60 cytotoxicity screen; format: cell-based; details: Homo sapiens, NCI-60, 48 h, renal
Source text: as §1

[35] = test system: SF-539; assay: NCI-60 cytotoxicity screen; format: cell-based; details: Homo sapiens, NCI-60, 48 h, CNS
Source text: as §1

[36] = test system: MCF-7; assay: NCI-60 cytotoxicity screen; format: cell-based; details: Homo sapiens, MCF7; NCI-60, 48 h, breast
Source text: as §1

[37] = test system: H522; assay: NCI-60 cytotoxicity screen; format: cell-based; details: Homo sapiens, NCI-60, 48 h, NSCLC
Source text: as §1

[38] = test system: HS 578 T; assay: NCI-60 cytotoxicity screen; format: cell-based; details: Homo sapiens, NCI-60, 48 h, breast
Source text: as §1

[39] = test system: COLO205; assay: NCI-60 cytotoxicity screen; format: cell-based; details: Homo sapiens, COLO 205; NCI-60, 48 h, colon
Source text: as §1

[40] = test system: HOP-62; assay: NCI-60 cytotoxicity screen; format: cell-based; details: Homo sapiens, NCI-60, 48 h, NSCLC
Source text: as §1

[41] = test system: SK-MEL-5; assay: NCI-60 cytotoxicity screen; format: cell-based; details: Homo sapiens, NCI-60, 48 h, melanoma
Source text: as §1

[42] = test system: UO-31; assay: NCI-60 cytotoxicity screen; format: cell-based; details: Homo sapiens, NCI-60, 48 h, renal
Source text: as §1

[43] = test system: SW620; assay: NCI-60 cytotoxicity screen; format: cell-based; details: Homo sapiens, SW-620; NCI-60, 48 h, colon
Source text: as §1

[44] = test system: SK-MEL-2; assay: NCI-60 cytotoxicity screen; format: cell-based; details: Homo sapiens, NCI-60, 48 h, melanoma
Source text: as §1

Compound: C=C(CN1CCN(c2ccccn2)CC1)c1ccc(C(=O)Nc2ccccc2N)cc1 [Compound 6, N-(2-aminophenyl)-4–(3-(4-(pyridin-2-yl)piperazin-1-yl)prop-1-en-2-yl)benzamide]
- IC50 [1]: > 20000 nM
- IC20 [1]: > 10000 nM
- IC50 [2]: 2390 nM
- IC50 [3]: 6350 nM
- IC50 [4]: 5330 nM
- IC50 [5]: 1190 nM
- IC50 [6]: 940 nM
- IC50 [7]: 2520 nM
- IC50 [8]: 2190 nM
- IC50 [9]: 1310 nM
- IC50 [10]: 2500 nM
- IC50 [11]: 3940 nM
- IC50 [12]: 5330 nM
- IC50 [13]: 1240 nM
- IC50 [14]: 1210 nM
- IC50 [15]: 1480 nM
- IC50 [16]: 4860 nM
- IC50 [17]: 1570 nM
- IC50 [18]: 1910 nM
- IC50 [19]: 940 nM
- IC50 [20]: 1410 nM
- IC50 [21]: 2360 nM
- IC50 [22]: 530 nM
- IC50 [23]: 2810 nM
- IC50 [24]: 930 nM
- IC50 [25]: 1480 nM
- IC50 [26]: 1550 nM
- IC50 [27]: 1500 nM
- IC50 [28]: 1390 nM
- IC50 [29]: 3780 nM
- IC50 [30]: 1600 nM
- IC50 [31]: 2520 nM
- IC50 [32]: 8470 nM
- IC50 [33]: 1660 nM
- IC50 [34]: 1500 nM
- IC50 [35]: 1500 nM
- IC50 [36]: 3160 nM
- IC50 [37]: 1560 nM
- IC50 [38]: 1110 nM
- IC50 [39]: 1710 nM
- IC50 [40]: 1320 nM
- IC50 [41]: 730 nM
- IC50 [42]: 1800 nM
- IC50 [43]: 1710 nM
- IC50 [44]: 1870 nM

Compound: C=C(CN1CCN(c2cccc(C(F)(F)F)n2)CC1)c1ccc(C(=O)Nc2ccccc2N)cc1 [Compound 7, N-(2-aminophenyl)-4–(3-(4–(6-(trifluoromethyl)pyridin-2-yl)piperazin-1-yl)prop-1-en-2-yl)benzamide]
- IC50 [1]: > 20000 nM
- IC20 [1]: 800 ± 200 nM
- IC50 [2]: 3320 nM
- IC50 [3]: 8360 nM
- IC50 [4]: 280 nM
- IC50 [5]: 510 nM
- IC50 [6]: 670 nM
- IC50 [7]: 1450 nM
- IC50 [8]: 320 nM
- IC50 [9]: 640 nM
- IC50 [10]: 540 nM
- IC50 [11]: 920 nM
- IC50 [12]: 24300 nM
- IC50 [13]: 260 nM
- IC50 [14]: 1970 nM
- IC50 [15]: 670 nM
- IC50 [16]: 650 nM
- IC50 [17]: 2010 nM
- IC50 [18]: 920 nM
- IC50 [19]: 14100 nM
- IC50 [20]: 970 nM
- IC50 [21]: 3790 nM
- IC50 [22]: 270 nM
- IC50 [23]: 640 nM
- IC50 [24]: 1490 nM
- IC50 [25]: 1160 nM
- IC50 [26]: 670 nM
- IC50 [27]: 4250 nM
- IC50 [28]: 390 nM
- IC50 [29]: 420 nM
- IC50 [30]: 530 nM
- IC50 [31]: 2080 nM
- IC50 [32]: 970 nM
- IC50 [33]: 1120 nM
- IC50 [34]: 8390 nM
- IC50 [35]: 980 nM
- IC50 [36]: 350 nM
- IC50 [37]: 1110 nM
- IC50 [38]: 450 nM
- IC50 [39]: 3330 nM
- IC50 [40]: 2210 nM
- IC50 [41]: 400 nM
- IC50 [42]: 2750 nM
- IC50 [43]: 530 nM
- IC50 [44]: 5650 nM
